Read-outs that look alike come from different tables or passages of the source.
Assays:
NAGS = assay type: cell-based, human
calcium channel = details: cited from earlier work
CPS1 = experiment: RNA-seq of compound-treated primary human hepatocytes, CPS1 expression; assay type: cell-based; details: primary human hepatocytes; for CPS1 expression, Fold change (Log 2) vs untreated: RNA-seq
PDGFRβ = PDGFRβ (Homo sapiens, UniProt P09619); details: cited from earlier work
ASS1 = experiment: RNA-seq of compound-treated primary human hepatocytes, ASS1 expression; assay type: cell-based
PDGFRα = PDGFRα (Homo sapiens, UniProt P16234); details: cited from earlier work
ASL = experiment: RNA-seq of compound-treated primary human hepatocytes, ASL expression; assay type: cell-based; details: primary human hepatocytes
SLC25A15 = experiment: RNA-seq of compound-treated primary human hepatocytes, SLC25A15 expression; assay type: cell-based; details: primary human hepatocytes, RNA-seq (Table 8)
OTC [1] = experiment: RNA-seq of compound-treated primary human hepatocytes, OTC expression; assay type: cell-based; details: for OTC expression, Fold change (Log 2) vs untreated: RNA-seq
ARG1 = experiment: RNA-seq of compound-treated primary human hepatocytes, ARG1 expression; assay type: cell-based; details: for Fold change (Log 2) vs untreated, ARG1 expression: primary human hepatocytes, RNA-seq (Table 7)
urea cycle genes = experiment: RNA-seq of primary human hepatocytes, compounds that modulate multiple urea cycle-related genes; assay type: cell-based; details: primary human hepatocytes, RNA-seq
OTC [2] = experiment: siRNA SMARTpool transfection of primary human hepatocytes, OTC qPCR (Table 3B); assay type: cell-based; details: siRNA 10 nM, 48 hrs, vs non-targeting siRNA
Method: Primary human hepatocytes were reversed transfected with 6 pmol siRNA using RNAiMAX Reagent (ThermoFisher Cat No13778030) in 24 well format, 1 ul per well (for a final cone of 10 nM). The following morning, the medium was removed and replaced with Modified Maintenance Medium (see above) for an additional 24 hrs. The entire treatment lasted 48 hrs, at which point the medium was removed and replaced with RLT Buffer for RNA extraction (Qiagen RNeasy 96 QIAcube HT Kit Cat #74171). siRNAs were obtained from Dharmacon and are a pool of four siRNA duplex all designed to target distinct sites within the specific gene of interest (known as “SMARTpool”). They were tested against the control non-targeting siRNA D-001206-13-05.
Isolated RNA was processed for cDNA synthesis and qPCR as described above. Taqman assay used for OTC measurement: Hs00166892_ml

RARγ = RARγ (Homo sapiens, UniProt P13631); details: cited from earlier work
RARα = RARα (Homo sapiens, UniProt P10276); details: cited from earlier work
RARβ = RARβ (Homo sapiens, UniProt P10826); details: cited from earlier work
PKCγ = PKCγ (Homo sapiens, UniProt P05129); details: cited from earlier work
PKCα = PKCα (Homo sapiens, UniProt P17252); details: cited from earlier work
PKCδ = PKCδ (Homo sapiens, UniProt Q05655); details: cited from earlier work
PKCβ = PKCβ (Homo sapiens, UniProt P05771); details: cited from earlier work
PDK1 = PDK1 (Homo sapiens, UniProt O15530); details: cited from earlier work
c-Met = c-Met (Homo sapiens, UniProt P08581); details: cited from earlier work
mTOR = mTOR (Homo sapiens, UniProt P42345); details: cited from earlier work
LXR = details: cited from earlier work
Bcr-Abl (wildtype) = details: cited from earlier work
Bcr-Abl (T315I) = details: cited from earlier work
OTC [3] = experiment: siRNA knockdown of JAK/STAT/IRF genes in hepatocytes, OTC mRNA; assay type: cell-based, human; details: 10 nM siRNA plus 0.03 nM JAK1 siRNA, FIG. 27C
Description: To confirm that JAK1 inhibition is necessary for OTC and CPS1 gene expression increase, JAK1, JAK2, and JAK3 expression was knocked down using the siRNA methods previously described in Example 1 (JAK1 siRNA Dharmacon #M-003145-02-0005; JAK2 siRNA Dharmacon #M-003146-02-0005; JAK3 siRNA Dharmacon #M-003147-01-0005). The cells were harvest for mRNA collection and quantification as previously described.
In addition, STAT5B is a JAK1 signal transducer and transcription factor activated by JAK1. STAT5B was knocked down in hepatocytes using siRNA (Dharmacon cat #M-010539-02-0005) as previously described in Example 1. The cells were harvest for mRNA collection and quantification as previously described.
To confirm the role of JAK1 and investigate the role of other signaling proteins and transcription factors in OTC and CPS1 expression, a panel of additional genes were knocked down with siRNA alone or in combination with JAK1. In particular, JAK2 was knockdown alone or in combination with JAK1. The combinations are shown in FIG. 26A and FIG. 26B. siRNA used to knock down JAK1 and JAK2 were: JAK1 siRNA Dharmacon #M-003145-02-0005; JAK2 siRNA Dharmacon #M-003146-02-0005. OTC and CPS1 mRNA expression was normalized to B2M. The assay was performed in triplicate in three donor hepatocyte cell lines: 371, 171, and 511A.
Cells were harvested after siRNA treatment for mRNA quantification. JAK1, OTC, and CPS1 mRNA levels were normalized to GUSB.

OTC [4] = experiment: Hepatocytes incubated with increasing concentrations of IFN-γ, OTC gene expression; assay type: cell-based, human
Method: To further assess the link between JAK1 and the urea cycle genes, hepatocytes were incubated with increasing concentrations of interferon (IFN)-γ, a known JAK1 activator. The cells were harvested for mRNA collection and OTC gene expression was determined as previously described.

[5] = primary human hepatocytes, RNA-seq (Table 6)
[6] = Example 11, relative mRNA vs DMSO

PDK1, sequence (O15530 whole entry): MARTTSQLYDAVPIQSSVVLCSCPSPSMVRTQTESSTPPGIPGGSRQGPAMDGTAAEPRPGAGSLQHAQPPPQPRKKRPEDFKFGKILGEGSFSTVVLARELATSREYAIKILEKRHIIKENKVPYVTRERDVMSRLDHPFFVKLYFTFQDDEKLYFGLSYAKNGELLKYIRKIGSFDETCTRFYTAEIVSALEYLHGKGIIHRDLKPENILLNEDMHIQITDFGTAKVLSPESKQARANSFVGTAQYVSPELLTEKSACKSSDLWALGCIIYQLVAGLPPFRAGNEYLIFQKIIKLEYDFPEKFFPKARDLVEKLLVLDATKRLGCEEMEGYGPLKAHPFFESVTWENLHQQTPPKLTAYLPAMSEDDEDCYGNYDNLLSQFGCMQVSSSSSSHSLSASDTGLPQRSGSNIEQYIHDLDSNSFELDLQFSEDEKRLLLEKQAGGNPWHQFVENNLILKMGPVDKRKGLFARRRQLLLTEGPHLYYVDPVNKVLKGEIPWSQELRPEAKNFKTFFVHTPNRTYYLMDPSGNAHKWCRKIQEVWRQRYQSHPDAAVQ
PDGFRβ, sequence (P09619 33-1106, species assumed): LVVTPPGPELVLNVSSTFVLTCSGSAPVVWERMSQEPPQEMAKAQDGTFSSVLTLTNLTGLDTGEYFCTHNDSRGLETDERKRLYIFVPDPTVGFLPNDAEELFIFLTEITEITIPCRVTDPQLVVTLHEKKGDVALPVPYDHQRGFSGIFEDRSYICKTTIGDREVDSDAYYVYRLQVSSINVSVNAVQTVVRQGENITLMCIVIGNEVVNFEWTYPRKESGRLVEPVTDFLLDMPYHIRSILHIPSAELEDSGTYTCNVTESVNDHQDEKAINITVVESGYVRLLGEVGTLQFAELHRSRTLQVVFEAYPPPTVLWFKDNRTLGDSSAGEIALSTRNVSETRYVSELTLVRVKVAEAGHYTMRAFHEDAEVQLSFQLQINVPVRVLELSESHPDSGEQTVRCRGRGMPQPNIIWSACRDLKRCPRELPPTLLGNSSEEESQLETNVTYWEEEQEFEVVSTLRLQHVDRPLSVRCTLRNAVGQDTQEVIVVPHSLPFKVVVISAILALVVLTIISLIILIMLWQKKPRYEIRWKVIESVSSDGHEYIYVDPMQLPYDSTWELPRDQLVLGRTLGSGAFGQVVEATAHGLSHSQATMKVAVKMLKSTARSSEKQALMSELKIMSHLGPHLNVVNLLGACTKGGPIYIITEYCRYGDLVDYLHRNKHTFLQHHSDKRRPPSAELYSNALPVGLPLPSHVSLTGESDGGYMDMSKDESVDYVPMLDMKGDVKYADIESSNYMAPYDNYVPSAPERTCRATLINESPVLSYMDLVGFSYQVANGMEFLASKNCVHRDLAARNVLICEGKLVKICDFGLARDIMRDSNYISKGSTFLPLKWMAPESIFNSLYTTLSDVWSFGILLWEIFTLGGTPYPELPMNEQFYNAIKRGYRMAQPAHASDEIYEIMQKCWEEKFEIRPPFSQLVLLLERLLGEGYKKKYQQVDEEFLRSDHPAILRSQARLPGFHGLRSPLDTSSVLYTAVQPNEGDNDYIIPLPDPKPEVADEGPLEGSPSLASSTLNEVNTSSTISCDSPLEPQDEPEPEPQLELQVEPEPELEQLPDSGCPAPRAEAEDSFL
RARβ, sequence (P10826 whole entry, species assumed): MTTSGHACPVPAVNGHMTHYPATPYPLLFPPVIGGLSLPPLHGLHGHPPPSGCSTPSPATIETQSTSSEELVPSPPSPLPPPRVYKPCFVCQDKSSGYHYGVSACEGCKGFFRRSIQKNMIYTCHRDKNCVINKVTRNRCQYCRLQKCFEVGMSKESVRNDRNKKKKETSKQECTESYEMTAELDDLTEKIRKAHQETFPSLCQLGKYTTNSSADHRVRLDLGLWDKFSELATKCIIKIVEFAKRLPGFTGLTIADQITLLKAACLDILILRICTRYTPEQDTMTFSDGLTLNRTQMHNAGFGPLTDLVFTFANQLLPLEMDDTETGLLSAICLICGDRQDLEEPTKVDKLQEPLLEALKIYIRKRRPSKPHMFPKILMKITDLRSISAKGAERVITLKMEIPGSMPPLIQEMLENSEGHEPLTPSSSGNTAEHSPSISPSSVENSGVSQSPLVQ
c-Met, sequence (P08581 25-1390): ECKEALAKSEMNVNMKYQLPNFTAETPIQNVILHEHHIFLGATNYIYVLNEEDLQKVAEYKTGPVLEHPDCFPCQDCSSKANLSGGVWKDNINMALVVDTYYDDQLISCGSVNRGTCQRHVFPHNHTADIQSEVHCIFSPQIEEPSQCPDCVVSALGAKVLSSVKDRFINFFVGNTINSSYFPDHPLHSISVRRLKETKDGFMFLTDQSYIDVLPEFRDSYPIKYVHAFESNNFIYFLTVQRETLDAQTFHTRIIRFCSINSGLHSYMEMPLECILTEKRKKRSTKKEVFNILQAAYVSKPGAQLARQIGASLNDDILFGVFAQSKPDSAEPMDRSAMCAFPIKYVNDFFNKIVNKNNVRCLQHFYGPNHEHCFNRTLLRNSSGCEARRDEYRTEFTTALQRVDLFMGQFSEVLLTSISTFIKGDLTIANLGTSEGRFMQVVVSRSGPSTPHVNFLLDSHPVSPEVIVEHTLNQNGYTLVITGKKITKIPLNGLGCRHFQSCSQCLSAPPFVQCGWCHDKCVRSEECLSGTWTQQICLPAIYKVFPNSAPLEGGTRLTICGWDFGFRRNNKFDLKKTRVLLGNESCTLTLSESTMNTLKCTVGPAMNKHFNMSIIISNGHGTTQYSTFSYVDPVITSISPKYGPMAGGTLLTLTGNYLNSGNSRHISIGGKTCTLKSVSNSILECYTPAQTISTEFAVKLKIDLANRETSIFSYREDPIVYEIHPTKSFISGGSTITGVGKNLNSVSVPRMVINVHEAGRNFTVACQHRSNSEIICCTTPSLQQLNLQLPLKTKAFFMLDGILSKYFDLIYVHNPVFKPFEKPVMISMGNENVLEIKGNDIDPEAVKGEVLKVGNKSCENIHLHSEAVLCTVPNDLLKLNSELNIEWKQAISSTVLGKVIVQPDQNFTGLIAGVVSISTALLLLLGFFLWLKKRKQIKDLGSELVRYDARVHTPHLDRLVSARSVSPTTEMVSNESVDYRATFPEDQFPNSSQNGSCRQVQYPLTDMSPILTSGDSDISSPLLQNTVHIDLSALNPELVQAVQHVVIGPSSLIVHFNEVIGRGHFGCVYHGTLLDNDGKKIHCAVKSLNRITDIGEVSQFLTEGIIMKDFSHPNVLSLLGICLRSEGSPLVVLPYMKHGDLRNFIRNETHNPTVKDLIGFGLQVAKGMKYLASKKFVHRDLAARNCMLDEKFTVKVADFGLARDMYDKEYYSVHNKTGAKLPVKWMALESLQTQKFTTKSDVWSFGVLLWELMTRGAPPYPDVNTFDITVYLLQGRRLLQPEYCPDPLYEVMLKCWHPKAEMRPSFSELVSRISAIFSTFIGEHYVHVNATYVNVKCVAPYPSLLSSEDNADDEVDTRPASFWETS
PKCβ, sequence (P05771 whole entry, species assumed): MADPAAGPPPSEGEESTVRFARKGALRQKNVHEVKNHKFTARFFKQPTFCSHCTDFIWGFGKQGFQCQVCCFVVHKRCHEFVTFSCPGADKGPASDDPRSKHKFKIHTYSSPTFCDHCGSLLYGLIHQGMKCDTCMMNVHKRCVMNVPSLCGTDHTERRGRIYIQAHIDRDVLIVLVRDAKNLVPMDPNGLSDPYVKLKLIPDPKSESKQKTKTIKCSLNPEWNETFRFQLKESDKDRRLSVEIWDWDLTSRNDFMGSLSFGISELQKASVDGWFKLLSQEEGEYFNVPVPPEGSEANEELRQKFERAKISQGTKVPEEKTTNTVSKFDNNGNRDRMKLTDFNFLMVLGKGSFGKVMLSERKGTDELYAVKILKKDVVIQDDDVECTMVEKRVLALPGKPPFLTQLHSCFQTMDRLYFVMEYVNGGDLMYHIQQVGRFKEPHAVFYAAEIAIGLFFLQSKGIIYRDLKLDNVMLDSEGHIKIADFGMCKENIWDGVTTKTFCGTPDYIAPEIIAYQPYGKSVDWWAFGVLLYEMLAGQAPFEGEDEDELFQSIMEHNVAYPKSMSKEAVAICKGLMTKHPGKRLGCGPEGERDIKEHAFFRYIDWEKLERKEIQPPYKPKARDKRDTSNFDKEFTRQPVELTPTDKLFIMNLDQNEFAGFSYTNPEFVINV

## CCOC(=O)C1=C(COCCN)NC(C)=C(C(=O)OC)C1c1ccccc1Cl (stereo not drawn) [Amlodipine Besylate]
NAGS; [5]
  Fold change (Log 2) vs untreated, NAGS expression: 0.73 Log 2
Calcium channel
  IC50: 1.9 nM

## COCCOc1ccc2c(c1)ncn2-c1ccc2cccc(N3CCC(N)CC3)c2n1 [CP-673451]
CPS1; 10 uM, triplicate (Table 20, FIG. 12)
  Relative CPS1 level vs Untreated (±Standard Deviation): 3.90 ± 0.97
CPS1
  CPS1 expression, Fold change (Log 2) vs untreated: 1.77 Log 2
PDGFRβ
  selectivity over other angiogenic receptors: > 450 fold
ASS1; 10 uM, primary human hepatocytes, triplicate (Table 15, FIG. 8)
  Relative ASS1 level vs Untreated (±Standard Deviation): 2.13 ± 0.68
ASS1; primary human hepatocytes, RNA-seq (Table 4)
  Fold change (Log 2) vs untreated, ASS1 expression: 1.52 Log 2
PDGFRα
  IC50: 10 nM
ASL; 10 uM, triplicate (Table 25, FIG. 17)
  Relative ASL level vs Untreated (±Standard Deviation): 2.94 ± 0.78
ASL; RNA-seq
  ASL expression, Fold change (Log 2) vs untreated: 1.81 Log 2
SLC25A15
  Fold change (Log 2) vs untreated, SLC25A15 expression: 0.76 Log 2
OTC [1]; 10 uM, primary human hepatocytes, triplicate (Table 14)
  Relative OTC level vs Untreated (±Standard Deviation): 3.36 ± 1.73
OTC [1]; [6]
  increase in OTC gene expression (Table 14, FIG. 6): significant increase
OTC [1]; primary human hepatocytes
  OTC expression, Fold change (Log 2) vs untreated: 2.63 Log 2
ARG1; [6]
  increase in ARG1 gene expression (Tables 17, 18, FIG. 9, 10): greatest increase
ARG1
  Fold change (Log 2) vs untreated, ARG1 expression: 3.21 Log 2
Urea cycle genes
  number of urea cycle genes whose expression was significantly up-regulated: six

## IGF-1: Insulin-like growth factor I
CPS1
  CPS1 expression, Fold change (Log 2) vs untreated: 2.22 Log 2
OTC [2]
  Max fold change in OTC: 1.69 fold
SLC25A15
  Fold change (Log 2) vs untreated, SLC25A15 expression: 0.8 Log 2
OTC [1]; primary human hepatocytes
  OTC expression, Fold change (Log 2) vs untreated: 0.76 Log 2
ARG1
  Fold change (Log 2) vs untreated, ARG1 expression: 1.89 Log 2
Urea cycle genes
  number of urea cycle genes whose expression was significantly up-regulated: four
Urea cycle genes; urea cycle-related genes significantly increased (Table 10)
  Up-regulated Genes: CPS1, OTC, ARG1, SLC25A15

## COCCOCOc1cc2ccc(-c3ccc(C(=O)O)cc3)cc2cc1C12CC3CC(CC(C3)C1)C2 [CD 2665]
RARγ
  Kd: 110 nM
NAGS
  Fold change (Log 2) vs untreated, NAGS expression: 0.62 Log 2
RARα
  Kd: > 1000 nM
RARβ
  Kd: 306 nM

## COc1ccc2c(c1)c(C1=C(c3c[nH]c4ccccc34)C(=O)NC1=O)cn2CCCN(C)C [GO6983]
NAGS; [5]
  Fold change (Log 2) vs untreated, NAGS expression: 0.7 Log 2
PKCγ
  IC50: 6 nM
PKCα
  IC50: 7 nM
PKCδ
  IC50: 10 nM
PKCβ
  IC50: 7 nM

## NCC(=O)Nc1ccc(-n2nc(C(F)(F)F)cc2-c2ccc3c(ccc4ccccc43)c2)cc1 [OSU-03012]
NAGS; [5]
  Fold change (Log 2) vs untreated, NAGS expression: 1.03 Log 2
PDK1
  increase in potency over OSU-02067: 2 fold

## SMAD3 (DNA YGTCTAGACA; siRNA; chemistry not given here; the letters are possibly those of the target site)
OTC [2]
  Max fold change in OTC: 2.49 fold

## Cc1ccc(C(=O)Nc2ccc(Oc3cc4cnn(C)c4cc3-c3cn[nH]c3)c(F)c2)c(=O)n1-c1ccc(F)cc1 [Merestinib]
c-Met
  half life (t1/2): 8.75 h

## CNC(=O)Nc1ccc(-c2nc(N3CC4CCC(C3)O4)c3cnn(C4CCC5(CC4)OCCO5)c3n2)cc1 [WYE-125132 (WYE-132)]
NAGS; [5]
  Fold change (Log 2) vs untreated, NAGS expression: 0.64 Log 2
mTOR
  IC50: 0.19 nM

## GZD824 Dimesylate
Bcr-Abl (wildtype)
  IC50: 0.34 nM
Bcr-Abl (T315I)
  IC50: 0.68 nM

## IRF1 (DNA GAAAGTGAAAGT; siRNA; chemistry not given here; the letters are possibly those of the target site)
OTC [2]
  Max fold change in OTC: 1.70 fold

## STAT1 (DNA NATTTCCNGGAAAT; target site or template, no part of the molecule; chemistry not given here)
OTC [3]
  OTC expression after knockdown in combination with JAK1: increased

B1: IFN-γ: interferon (IFN)-γ, a known JAK1 activator (protein, UniProt P01579 24-161, looked up)
Interferon gamma: QDPYVKEAENLKKYFNAGHSDVADNGTLFLGILKNWKEESDRKIMQSQIVSFYFKLFKNFKDDQSIQKSVETIKEDMNVKFFNSNKKKRDDFEKLTNYSVTDLNVQRKAIHELIQVMAELSPAAKTGKRKRSQMLFRG
OTC [4]
  OTC gene expression after IFN-γ: dose-dependent decrease
OTC [4]; listed as IFNγ
  OTC gene expression after IFN-γ: decreases
